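Step 1: Grow cells in 96-well plates. Step 2: Expose to compound for 48 hours at 5 concentrations. Step 3: Interpolate endpoints linearly; if unreached, use highest concentration. GI50 = concentration required for 50% inhibition of growth.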 Activity calls are given as the source filed them. Rule as the data show it: active = GI50 up to about 1.1 µM and inactive = higher. Starred links: 1 amine or outer side, 2 acyl side, 3 side chain; linkers in the order of their positions; H or OH if unused. Positions of bridges follow the written chain, without caps; N, C: chain ends. Non-standard residues stand in square brackets, D forms with d. Residues, ends and D or L forms follow the SMILES beside them. Chains are numbered I, II in the order given. Actinocin(1to9) = Cc1c2oc3c(C)ccc(C(=O)[*:2])c3nc-2c(C(=O)[*:1])c(N)c1=O; aThr = C[C@H](O)[C@H](N)C(=O)O; NMeV = CN[C@H](C(=O)O)C(C)C; Sar = CNCC(=O)O

Common to all, as to experiment: NCI-60 cell line screen, 48 h
In test [1] the test system is LOX IMVI.
The test system of test [2] is ACHN.
The test system of test [3] is EKVX.
Test [4] has as its system MDA-MB-435.
The subject of test [5] is Malme-3M.
The test system of test [6] is SF-295.
Test [7] has as its system BT-549.
The subject of test [8] is UACC-257.
For test [9], the system named is OVCAR-5.
Test [10] relates to UO-31.
Test [11] relates to A549.
The subject of test [12] is SW-620.
Test [13] deals with NCI-H226.
The subject of test [14] is SF-268.
Test [15] has as its system MOLT-4.
Test [16] relates to SF-539.
Test [17] has as its system KM-20L2.
Test [18] relates to CAKI-1.
Test [19] relates to UACC-62.
Test [20] concerns NCI-H522.

Turning to `Cc1c2oc3c(C)ccc(C(=O)N[C@@H]4C(=O)N[C@H](C(C)C)C(=O)N5CCC[C@H]5C(=O)N(C)CC(=O)N(C)[C@@H](C(C)C)C(=O)O[C@H]4C)c3nc-2c(C(=O)N[C@@H]2C(=O)N[C@H](C(C)C)C(=O)N3CCC[C@H]3C(=O)N(C)CC(=O)N(C)[C@@H](C(C)C)C(=O)O[C@H]2C)c(N)c1=O` (I: [aThr][dV]P[Sar][NMeV] / II: [aThr][dV]P[Sar][NMeV]; ester I:1-I:C, II:1-II:C; linker I:N-II:N via Actinocin(1to9)), the GI50 in [1] was 0.000518 µM (active); in test [2], 0.00371 µM (active); in test [3], 0.012 µM (active); in test [4], 0.871 nM (active); in test [5] it was 0.00119 µM (active); in test [6], 0.00203 µM (active). Moreover, the GI50 is 0.00169 µM (active) in [7]; 0.00255 µM (active) in [8]; 0.00611 µM (active) in test [9]; 0.015 µM (active) in [10]; 0.00206 µM (active) in test [11]; 0.000489 µM (active) in test [12]. In addition, the GI50 was 0.00195 µM (active) in test [13]; 0.00148 µM (active) in test [14]; 0.00048 µM (active) in test [15]; 0.000899 µM (active) in test [16]; 0.00292 µM (active) in test [17]; 0.00484 µM (active) in test [18]. The figures for the GI50 in [19] and in test [20] were 0.000935 µM (active) and 0.000506 µM (active), respectively.
On to `Cc1ccc(OC(=O)N2C/C(=C\c3ccccc3)C(=O)/C(=C/c3ccccc3)C2)cc1`, for which the GI50 in [1] is 3.29 µM (inactive); in test [2] it was 26.7 µM (inactive); in test [3], > 100 µM (inactive); in [5], > 76 µM (inactive); in [6], 18.7 µM (inactive); in test [7] it was 29 µM (inactive). The GI50 in test [8] is 40.6 µM (inactive); in test [9] it was 76 µM (inactive); in [10], 36.9 µM (inactive); in test [11], > 69.5 µM (inactive); in test [12], 4.47 µM (inactive); in test [13], 56.5 µM (inactive). Besides, the GI50 in [14] is 34.1 µM (inactive); in test [15], 4.07 µM (inactive); in test [16] it was 26.4 µM (inactive); in [17], 39.7 µM (inactive); in test [18] it was 49.9 µM (inactive); in test [19] it was 23.5 µM (inactive). In [20], the GI50 was 13 µM (inactive).
Take `c1ccc(C2=NOC3(c4ccccc4)SC4CCCCC4CN23)cc1` (stereo not given): the GI50 in [1] was 17 µM (inactive); in [2] it was 26.2 µM (inactive); in test [3], 57.9 µM (inactive); in test [5], 29.8 µM (inactive); in test [6], 28.1 µM (inactive); in test [8], 38.5 µM (inactive). For the same compound, the GI50 is > 100 µM (inactive) in [9]; 27.5 µM (inactive) in test [10]; 20.5 µM (inactive) in [11]; 30.6 µM (inactive) in test [12]; 36.6 µM (inactive) in test [13]; 22.8 µM (inactive) in [14]. The GI50 in test [15] is 12.7 µM (inactive); in [16], 18.7 µM (inactive); in test [17], 39.5 µM (inactive); in test [18], 19.5 µM (inactive); in test [19], 25 µM (inactive); in test [20], 9.42 µM (inactive).
As to `Cc1c(C(=O)CC(=O)C(=O)NC2C3CC4CC(C3)CC2C4)[n+]([O-])c2ccccc2[n+]1[O-]` (stereo not given), the GI50 in test [1], in test [2], in [3], in test [5], in test [6] and in test [8] was > 100 µM (inactive) throughout. Also, the GI50 in test [9], in test [10], in [11], in test [12], in test [13] and in test [14] was > 100 µM (inactive) in each case. In addition, the GI50 in test [15], in [16], in test [17], in test [18], in test [19] and in test [20] was > 100 µM (inactive) throughout.
`O=C(Nc1cc(Cl)ccc1Cl)C(=O)C(c1cnc2ccccc2n1)[N+](=O)[O-]` (stereo not given): the GI50 in [1], in test [2], in test [3], in test [5], in [6] and in test [8] was > 100 µM (inactive) in each case. Moreover, the GI50 in [9], in test [10], in test [11], in [12], in test [13] and in [14] was > 100 µM (inactive) throughout. The GI50 in [15] is > 100 µM (inactive); in test [16] it was > 100 µM (inactive); in test [17], > 100 µM (inactive); in [18] it was > 100 µM (inactive); in test [19], > 100 µM (inactive); in test [20] it was 85.1 µM (inactive).
For the compound `COc1ccc(-c2nc(N)n(C)c2SSc2c(-c3ccc(OC)cc3)nc(N)n2C)cc1`, the GI50 in test [1] is 2.03 µM (inactive); in test [2] it was 3.94 µM (inactive); in [3], 20.8 µM (inactive); in [4], 3920 nM (inactive); in [5], 9.42 µM (inactive); in test [6], 11.6 µM (inactive). In addition, the GI50 in [7] was 2.32 µM (inactive); in test [8], 5.96 µM (inactive); in test [9], 6.85 µM (inactive); in test [10], 5.25 µM (inactive); in test [11] it was 17.5 µM (inactive); in test [12], 2.23 µM (inactive). The GI50 is 17.4 µM (inactive) in test [13]; 12.6 µM (inactive) in test [14]; 2.13 µM (inactive) in test [15]; 4.69 µM (inactive) in test [16]; 12.9 µM (inactive) in test [17]; 10.1 µM (inactive) in test [18]. Also, the GI50 in test [19] is 3.81 µM (inactive); in [20], 1.81 µM (inactive).
In the case of `CC(C)(c1ccc(OC#N)cc1)c1ccc(OC#N)cc1`, the GI50 in test [1] is > 48.4 µM (inactive); in test [2], > 100 µM (inactive); in test [3], > 100 µM (inactive); in test [5], > 100 µM (inactive); in test [6] it was > 100 µM (inactive); in [8], > 100 µM (inactive). For the same compound, the GI50 was > 100 µM (inactive) in test [9]; > 100 µM (inactive) in test [10]; > 100 µM (inactive) in [11]; > 100 µM (inactive) in test [12]; > 100 µM (inactive) in [13]; > 66.5 µM (inactive) in test [14]. For the same compound, the GI50 in [15] was > 100 µM (inactive); in test [16] it was > 100 µM (inactive); in test [17], > 74.6 µM (inactive); in test [18], > 100 µM (inactive); in test [19] it was > 100 µM (inactive); in test [20], 23.2 µM (inactive).
As to `Cc1c(C2Cc3ccccc3N2C(=O)/C=C\C(=O)O)c2ccccc2n1C` (stereo not given), the GI50 is 16.9 µM (inactive) in test [1]; 38.6 µM (inactive) in [2]; 30.2 µM (inactive) in [3]; 15.9 µM (inactive) in [5]; 24.4 µM (inactive) in test [6]; 16.2 µM (inactive) in test [8]. The GI50 in test [9] was 48.4 µM (inactive); in test [10], 20.4 µM (inactive); in test [11], 33 µM (inactive); in test [12], 20 µM (inactive); in [13], 20.2 µM (inactive); in [14], 18.7 µM (inactive). For the same compound, the GI50 was 27.7 µM (inactive) in [15]; 21.6 µM (inactive) in test [16]; 25.1 µM (inactive) in test [17]; 25.8 µM (inactive) in test [18]; 16.9 µM (inactive) in test [19]; 19.2 µM (inactive) in [20].
As for `Cc1ccc(N2C(=O)/C(=C/c3ccc(N(CCC#N)CCC#N)cc3)N=C2COc2ccc(Cl)cc2Cl)cc1`, the GI50 in test [1], in [2], in test [3], in test [5], in [6] and in [8] was > 100 µM (inactive) each time. Also, the GI50 in test [9], in test [10], in [11], in test [12], in test [13] and in [14] was > 100 µM (inactive) in each case. Besides, the GI50 in test [15], in test [16], in test [17], in [18], in [19] and in [20] was > 100 µM (inactive) throughout.
For the compound `NNC(=O)/C(NC(=O)c1ccccc1)=C(\N)c1ccc(Cl)cc1`, the GI50 in test [1], in test [2], in test [3], in test [5], in [6] and in [8] was > 100 µM (inactive) each time. In addition, the GI50 in [9], in test [10], in [11], in [12], in test [13] and in [14] was > 100 µM (inactive) throughout. The GI50 is 28.3 µM (inactive) in test [15]; > 100 µM (inactive) in test [16]; > 100 µM (inactive) in [17]; > 100 µM (inactive) in [18]; > 100 µM (inactive) in [19]; 61.1 µM (inactive) in test [20].
